Experiment [1] has as its system C16orf54 expressing sarcoma line 2. Briefly: Cell viability assay, C16orf54 expressing sarcoma line 2. The class given is cell-based, murine. The following applies: 1000 cells/well, 72 hours. Here is the method:
(§1) Murine sarcoma cell lines that express C16orf54 were prepared by virus infection of sarcoma cell lines. A PCR-amplified C16orf54 gene was cloned into a murine stem cell virus expression vector with a neomycin resistance gene and sequenced to confirm the identity. To prepare virus particles, HEK 293t cells with retroviral packaging proteins were transfected, in the presence of transfection reagent FUGENE HD (Roche), with the retroviral expression vector containing C16orf54. The virus particles collected from the supernatant of the culture media 48 hours after transfection were used to infect the sarcoma cells. After G418 selection, stable transfectants were pooled and then cloned by limiting dilution. Clones were then picked and expanded in the presence of antibiotics. Clones with the highest expression level of C16orf54 as measured by flow cytometry were expanded and banked. These cell lines were then used to immunize the syngeneic mice for antibody production and in the binding assays for antibody selection as follows.
(§2) The anti-tumor activity of unconjugated anti-C16orf54 antibodies and anti-C16orf54 antibodies that were directly conjugated with […] (ADCs) was determined in a cell viability assay using several C16orf54-expressing cell lines. Cells were plated at 1000 cells/well and incubated in the presence of antibodies or ADCs for 72 hours.

Experiment [2] deals with C16orf54 expressing Sarcoma line 1. Briefly: Cell viability assay, C16orf54 expressing sarcoma line 1. The class given is cell-based, murine. The following applies: 1000 cells/well, 72 hours. Here is the method: as §1, §2

Structures are written as SMILES. Square brackets hold non-standard residues; d marks the D form. Peptide text beside a SMILES is read from it. * marks the point of attachment. Dolaproine = CO[C@@H]([C@@H]1CCCN1)[C@@H](C)C(=O)O; Dil = CC[C@H](C)[C@H](NC)[C@@H](CC(=O)O)OC; X1 = C[C@@H](N*)[C@@H](O)c1ccccc1; NMeV = CN[C@H](C(=O)O)C(C)C

Usually IC50 stands for the point on the concentration scale where inhibition reaches its midpoint. Turning to `CC[C@H](C)[C@@H]([C@@H](CC(=O)N1CCC[C@H]1[C@H](OC)[C@@H](C)C(=O)N[C@H](C)[C@@H](O)c1ccccc1)OC)N(C)C(=O)[C@@H](NC(=O)[C@@H](NC)C(C)C)C(C)C` [MMAE, monomethylauristatin E] (H-[NMeV]V[Dil][Dolaproine]-X1), the values for the IC50 in experiment [1] and in experiment [2] were 4.1 nM and 0.4 nM, respectively.

The values are drawn from US20150231240A1, “ANTI-C16ORF54 ANTIBODIES AND METHODS OF USE THEREOF” (priority 2012, published 2015).
